Experimental data as given in patent publication US7541020B2, “Aminoalkyl glucosaminide phosphate compounds and their use as adjuvants and immunoeffectors” (priority 1997, dated 2009).
Like-named read-outs stand apart in the source and are kept apart here.

What was measured:
[1] = system: influenza A/HK/68; parameters: species or system ICR mice; conditions: mouse, in vivo
[2] = system: influenza A/HK/68; assay type: in vivo, BALB/c mice; conditions: mouse, in vivo
[3] = system: influenza A/HK/68; parameters: species or system ICR mice; conditions: mouse, in vivo; remark: listed apart in the source
[4] = system: influenza A/HK/68; assay type: in vivo, ICR mice; conditions: mouse, in vivo
[5] = system: hepatitis B surface antigen (HBsAg); test: Serum anti-HBsAg antibody titers after intranasal HBsAg + AGP-AF (ELISA); assay type: in vivo, BALB/c mice; conditions: for Anti HBsAg Titer^−1 IgG1 / Anti HBsAg Titer^−1 IgG2a: K = 10^3
[6] = system: hepatitis B surface antigen (HBsAg); test: Vaginal wash anti-HBsAg antibody after intranasal HBsAg + AGP-AF; assay type: in vivo, BALB/c mice; conditions: 10 days after the booster immunization; intranasal HBsAg + 10 μg AGP-AF
Text: Vaginal samples were collected 10 days after the booster immunization and assayed for anti-HBsAg antibody.

[7] = system: hepatitis B surface antigen (HBsAg); test: Cytotoxic T-lymphocyte response to HBsAg with AGP in stable emulsion (AGP-SE); conditions: s.c. 2.0 μg HBsAg + 25 μg AGP/SE
[8] = Fever response in rabbits (pyrogenicity); assay type: in vivo; conditions: 10 ug/kg; cumulative rise ≥1.5 degree in three rabbits is considered pyrogenic
Method: The AGP compounds were also evaluated for their tendency to induce a fever response in rabbits. Each compound was formulated in 10% (v/v) ethanol/water solution at 100 mg/ml, then diluted with D5W to the desired concentration. The material was injected at 3 ml/kg body weight into 3 rabbits. The rise in core temperature of the rabbits was recorded.

[9] = system: E.G7 (OVA) cells; conditions: s.c. 25 μg OVA in AGP preparation, spleen cells 21 days later
[10] = system: hepatitis B surface antigen (HBsAg); conditions: for % Cytotoxicity (d16, post 2°): HBsAg + 10 μg AGP-AF intranasally; for % Cytotoxicity (d8, post 3°): intranasal HBsAg + 10 μg AGP-AF
[11] = system: hepatitis B surface antigen (HBsAg); test: Anti-HBsAg antibody titer with AGP-SE (ELISA plates coated with HBsAg or p72 peptide); conditions: sera day 28 post 2°, 25 μg AGP-SE
[12] = system: TNF-α; test: Cytokine induction in human whole blood ex vivo culture: TNF-α (ELISA); assay type: cell-based; conditions: 4 hr, Table 15
Procedure, shortened: (§1)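 Compounds in 10% EtOH-water added at 1:10 to human whole blood, 4 hr at 37° C with rotation; RPMI-treated controls. After PBS dilution and centrifugation, supernatant TNF-α and IL-1β measured by ELISA.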

[13] = system: IL-1β; test: Cytokine induction in human whole blood ex vivo culture: IL-1β (ELISA); assay type: cell-based; conditions: 4 hr, Table 15
Procedure, shortened: as §1

[14] = day 22 post 2°, HBsAg + 10 μg AGP-AF intranasally
[15] = serum, day 21 post 3°, intranasal HBsAg + 10 μg AGP-AF
[16] = ELISA plates coated with p72 peptide

In the case of “3-Hydroxy-(S)-2-[(R)-3-dodecanoyloxytetradecanoylamino]propyl 2-Deoxy-4-O-phosphono-2-[(R)-3-dodecanoyloxytetradecanoylamino]-3-O-[(R)-3-dodecanoyloxytetradecanoyl]-β-D-glucopyranoside Triethylammonium Salt [B3]”, the “Percent Survival” value [1] is reported as 33%, the “Anti-influenza Titer^−1 IgG1” value [2] is reported as 3200 and the “Anti-influenza Titer^−1 IgG2b” value [2] is reported as 800. The “Anti-influenza Titer^−1 Total IgG” value [2] was 3200, the “Percent Survival” value [2] was 87.5% and the “IgG Titer-1 post 1°” value [3] was 3200. The “IgG Titer-1 post 2°” value [3] was 102,400, the “Percent Survival post 1°” value [3] was 70% and the “Percent Survival post 2°” value [3] was 60%. The “Percent Survival” value [4] was 0%, the “Titer−1 IgG2a” value [4] was 50 and the “Titer−1 IgG2b” value [4] was 800. The “Anti HBsAg Titer^−1 IgA” value [5, 14] was 6,400, the “Anti HBsAg Titer^−1 IgG1” value [5, 14] was 1000K and the “Anti HBsAg Titer^−1 IgG2a” value [5, 14] was 500K. For the same substance, the “Anti HBsAg Titer^−1 IgG1” value [5, 15] was 1000K, the “Anti HBsAg Titer^−1 IgG2a” value [5, 15] was 1000K and the “Anti HBsAg Titer^−1 IgA” value [5, 15] was 25,600. For the same substance, the “Vaginal Wash Anti-HBsAg Titer^−1 IgA” value [6] was 1600, the “Vaginal Wash Anti-HBsAg Titer^−1 IgG” value [6] was 800 and the “% Cytotoxicity” value ([7]; d16, post 2°, E:T 6.25:1) was 22%. The “% Cytotoxicity” value ([7]; d16, post 2°, E:T 12.5:1) was 32%, the “% Cytotoxicity” value ([7]; d16, post 2°, E:T 25:1) was 47% and the “% Cytotoxicity” value ([7]; d16, post 2°, E:T 50:1) was 81%. For the same substance, the “% Cytotoxicity” value ([7]; d17, post 1°, E:T 6.25:1) was 5%, the “% Cytotoxicity” value ([7]; d17, post 1°, E:T 12.5:1) was 9% and the “% Cytotoxicity” value ([7]; d17, post 1°, E:T 25:1) was 15%. The “% Cytotoxicity” value ([7]; d17, post 1°, E:T 50:1) was 28%, the “PYROGENICITY Total Rise ° C., 3 rabbits” value [8] was 4.2 °C and the “% Cytotoxicity” value ([9]; E:T 12.5:1) was 42%. For the same substance, the “% Cytotoxicity” value ([9]; E:T 25:1) was 54%, the “% Cytotoxicity” value ([9]; E:T 50:1) was 65% and the “% Cytotoxicity (d16, post 2°)” value ([10]; E/T 6.25:1) was 11%. The “% Cytotoxicity (d8, post 3°)” value ([10]; E/T 6.25:1) was 20%, the “% Cytotoxicity (d16, post 2°)” value ([10]; E/T 12.5:1) was 17% and the “% Cytotoxicity (d8, post 3°)” value ([10]; E/T 12.5:1) was 32%. The “% Cytotoxicity (d16, post 2°)” value ([10]; E/T 25:1) was 26%, the “% Cytotoxicity (d8, post 3°)” value ([10]; E/T 25:1) was 45% and the “% Cytotoxicity (d16, post 2°)” value ([10]; E/T 50:1) was 43%. The “% Cytotoxicity (d8, post 3°)” value ([10]; E/T 50:1) was 54%, the “Anti-HBsAg Titer^−1 HBsAg IgG1” value ([11]; ELISA plates coated with HBsAg) was 512K and the “Anti-HBsAg Titer^−1 HBsAg IgG2a” value ([11]; ELISA plates coated with HBsAg) was 1024K. The “Anti-HBsAg Titer^−1 p72-Peptide IgG1” value [11, 16] was 16K and the “Anti-HBsAg Titer^−1 p72-Peptide IgG2a” value [11, 16] was 128K.

With “4-Hydroxy-(S)-2-[(R)-3-decanoyloxytetradecanoyl]butyl 2-Deoxy-4-O-phosphono-2-[(R)-3-decanoyloxytetradecanoylamino]-3-O-[(R)-3-decanoyltetradecanoyl]-β-D-glucopyranoside Triethylammonium Salt [B10]” the “Anti-influenza Titer^−1 Total IgG” value [1] was 1600, the “Percent Survival” value [1] was 40% and the “Anti-influenza Titer^−1 IgG1” value [2] was 400. For the same substance, the “Anti-influenza Titer^−1 IgG2a” value [2] was 400, the “Anti-influenza Titer^−1 IgG2b” value [2] was 400 and the “Anti-influenza Titer^−1 Total IgG” value [2] was 400. The “Percent Survival” value [2] was 62.5%, the “IgG Titer-1 post 1°” value [3] was 1600 and the “IgG Titer-1 post 2°” value [3] was 25,600. The “Percent Survival post 1°” value [3] was 60%, the “Percent Survival post 2°” value [3] was 90% and the TNF-α ([12]; Dosage 1000 ng/ml) was 73 pg/mL. It also gave a TNF-α ([12]; Dosage 5000 ng/ml) of 127 pg/mL, a TNF-α ([12]; Dosage 10,000 ng/ml) of 207 pg/mL and an IL-1β ([13]; Dosage 1000 ng/ml) of 17 pg/mL. The IL-1β ([13]; Dosage 5000 ng/ml) was 61 pg/mL, the IL-1β ([13]; Dosage 10,000 ng/ml) was 43 pg/mL and the “PYROGENICITY Total Rise ° C., 3 rabbits” value [8] was 5.8 °C. For the same substance, the “% Cytotoxicity” value ([9]; E:T 12.5:1) was 38%, the “% Cytotoxicity” value ([9]; E:T 25:1) was 56% and the “% Cytotoxicity” value ([9]; E:T 50:1) was 65%.
